According to ChEMBL document CHEMBL5380773, “Novel Feleucin-K3-Derived Peptides Modified with Sulfono-γ-AA Building Blocks Targeting Pseudomonas aeruginosa and Methicillin-Resistant Staphylococcus aureus Infections” (J Med Chem, 2023):
Numbered stars: 1 amine (or outer) side, 2 acyl side, 3 side chain; on linkers, the order of the positions; unused ones are H or OH. Square brackets hold non-standard residues; d marks the D form. Peptide text beside a SMILES is read from it. * marks the point of attachment. X21 = CC(C)c1cc(C(C)C)c(S(=O)(=O)N(CC(N)=O)C[C@H](Cc2ccccc2)N*)c(C(C)C)c1; X11 = CC(C)C[C@@H](CN(CC(N)=O)S(=O)(=O)c1ccc([N+](=O)[O-])cc1)N*; X17 = CC(C)C[C@@H](CN(CC(N)=O)S(=O)(=O)c1ccccc1[N+](=O)[O-])N*; X19 = COc1ccc(S(=O)(=O)N(CC(N)=O)C[C@H](Cc2ccccc2)N*)cc1; Benzenesulfonyl(2-NO2) = O=[N+]([O-])c1ccccc1S(=O)(=O)*; X15 = NC(=O)CN(C[C@H](Cc1ccccc1)N*)S(=O)(=O)c1ccc(I)cc1; X24 = Cc1ccc(S(=O)(=O)N(CC(N)=O)C[C@H](Cc2ccccc2)N*)cc1; X7 = NC(=O)CN(C[C@H](Cc1ccccc1)N*)S(=O)(=O)c1cccc(Cl)c1; X16 = CC(C)C[C@@H](CN(CC(N)=O)S(=O)(=O)c1ccc(Cl)cc1)N*; X22 = CC(C)C[C@@H](CN(CC(N)=O)S(=O)(=O)c1ccc(F)cc1)N*; X6 = COc1ccc(S(=O)(=O)N(CC(N)=O)C[C@H](CC(C)C)N*)cc1; Benzenesulfonyl(4-OMe) = COc1ccc(S(=O)(=O)*)cc1; X3 = N[C@@H](Cc1ccccc1)CN(CC(=O)[*:2])[*:1]; X2 = CC(C)C[C@H](N)CN(CC(=O)[*:2])[*:1]; X10 = O=[N+]([O-])c1ccc(S(=O)(=O)*)cc1; X4 = O=S(=O)(c1cccc(Cl)c1)*

The molecules below were run on Erythrocyte (assay: Hemolytic activity against mouse red blood cells incubated for 1 hr).
Assay type: toxicity, cell-based

For CC(C)C[C@H](NC(=O)[C@H](CC(C)C)NC(=O)[C@H](CCCCN)NC(=O)[C@H](CC(C)C)NC(=O)[C@@H](N)Cc1ccccc1)C(=O)N[C@@H](CCCCN)C(=O)N[C@@H](CCCCN)C(=O)N[C@@H](Cc1ccccc1)CN(CC(N)=O)S(=O)(=O)c1cccc(Cl)c1 (H-FLKLLKK-X7), which MHC is on record?
Its MHC is 256 µg/mL.

CC(C)C[C@H](NC(=O)[C@H](CC(C)C)NC(=O)[C@H](CCCCN)NC(=O)[C@H](CCCCN)NC(=O)[C@H](CC(C)C)NC(=O)[C@H](CC(C)C)NC(=O)[C@H](CCCCN)NC(=O)CN(C[C@@H](N)Cc1ccccc1)S(=O)(=O)c1cccc(Cl)c1)C(N)=O (X4-[X3]KLLKKLL-NH2) was tested. Which MHC did it give?
The MHC was 128 µg/mL.

How did the MHC turn out when COc1ccc(S(=O)(=O)N(CC(N)=O)C[C@H](CC(C)C)NC(=O)[C@H](CCCCN)NC(=O)[C@H](CCCCN)NC(=O)[C@H](CC(C)C)NC(=O)[C@H](CC(C)C)NC(=O)[C@H](CCCCN)NC(=O)[C@H](CC(C)C)NC(=O)[C@@H](N)Cc2ccccc2)cc1 (H-FLKLLKK-X6) was run?
Its MHC is 256 µg/mL.

CC(C)C[C@H](NC(=O)[C@H](CC(C)C)NC(=O)[C@H](CCCCN)NC(=O)[C@H](CCCCN)NC(=O)[C@H](CC(C)C)NC(=O)[C@H](CC(C)C)NC(=O)[C@H](CCCCN)NC(=O)CN(C[C@@H](N)Cc1ccccc1)S(=O)(=O)c1ccccc1[N+](=O)[O-])C(N)=O ({Benzenesulfonyl(2-NO2)}-[X3]KLLKKLL-NH2) was tested. Which MHC did it give?
The MHC was 256 µg/mL.

Which MHC does the source give for CC(C)C[C@@H](CN(CC(N)=O)S(=O)(=O)c1ccc(Cl)cc1)NC(=O)[C@H](CCCCN)NC(=O)[C@H](CCCCN)NC(=O)[C@H](CC(C)C)NC(=O)[C@H](CC(C)C)NC(=O)[C@H](CCCCN)NC(=O)[C@H](CC(C)C)NC(=O)[C@@H](N)Cc1ccccc1 (H-FLKLLKK-X16) here?
The MHC was 256 µg/mL.

How did the MHC turn out when CC(C)C[C@H](NC(=O)[C@H](CC(C)C)NC(=O)[C@H](CCCCN)NC(=O)[C@H](CC(C)C)NC(=O)[C@@H](N)Cc1ccccc1)C(=O)N[C@@H](CCCCN)C(=O)N[C@@H](CCCCN)C(=O)N[C@@H](Cc1ccccc1)CN(CC(N)=O)S(=O)(=O)c1c(C(C)C)cc(C(C)C)cc1C(C)C (H-FLKLLKK-X21) was run?
The MHC was 32 µg/mL.

With CC(C)C[C@@H](CN(CC(N)=O)S(=O)(=O)c1ccc([N+](=O)[O-])cc1)NC(=O)[C@H](CCCCN)NC(=O)[C@H](CCCCN)NC(=O)[C@H](CC(C)C)NC(=O)[C@H](CC(C)C)NC(=O)[C@H](CCCCN)NC(=O)[C@H](CC(C)C)NC(=O)[C@@H](N)Cc1ccccc1 (H-FLKLLKK-X11) as the molecule, how does the MHC read?
The MHC was 256 µg/mL.

With Cc1ccc(S(=O)(=O)N(CC(N)=O)C[C@H](Cc2ccccc2)NC(=O)[C@H](CCCCN)NC(=O)[C@H](CCCCN)NC(=O)[C@H](CC(C)C)NC(=O)[C@H](CC(C)C)NC(=O)[C@H](CCCCN)NC(=O)[C@H](CC(C)C)NC(=O)[C@@H](N)Cc2ccccc2)cc1 (H-FLKLLKK-X24) as the molecule, how does the MHC read?
The MHC was 256 µg/mL.

For CC(C)C[C@H](NC(=O)[C@H](CC(C)C)NC(=O)[C@H](CCCCN)NC(=O)[C@H](CCCCN)NC(=O)[C@H](CC(C)C)NC(=O)[C@H](CC(C)C)NC(=O)[C@H](CCCCN)NC(=O)CN(C[C@@H](N)Cc1ccccc1)S(=O)(=O)c1ccc([N+](=O)[O-])cc1)C(N)=O (X10-[X3]KLLKKLL-NH2), which MHC is on record?
Its MHC is 256 µg/mL.

COc1ccc(S(=O)(=O)N(CC(N)=O)C[C@H](Cc2ccccc2)NC(=O)[C@H](CCCCN)NC(=O)[C@H](CCCCN)NC(=O)[C@H](CC(C)C)NC(=O)[C@H](CC(C)C)NC(=O)[C@H](CCCCN)NC(=O)[C@H](CC(C)C)NC(=O)[C@@H](N)Cc2ccccc2)cc1 (H-FLKLLKK-X19) was tested. Which MHC did it give?
The MHC was 256 µg/mL.

CC(C)C[C@H](NC(=O)[C@H](CC(C)C)NC(=O)[C@H](CCCCN)NC(=O)[C@H](CC(C)C)NC(=O)[C@@H](N)Cc1ccccc1)C(=O)N[C@@H](CCCCN)C(=O)N[C@@H](CCCCN)C(=O)N[C@@H](Cc1ccccc1)CN(CC(N)=O)S(=O)(=O)c1ccc(I)cc1 (H-FLKLLKK-X15) was tested. Which MHC did it give?
Its MHC is 128 µg/mL.

Which MHC does the source give for CC(C)C[C@H](N)CN(CC(=O)N[C@@H](CCCCN)C(=O)N[C@@H](CC(C)C)C(=O)N[C@@H](CC(C)C)C(=O)N[C@@H](CCCCN)C(=O)N[C@@H](CCCCN)C(=O)N[C@@H](CC(C)C)C(=O)N[C@@H](CC(C)C)C(N)=O)S(=O)(=O)c1ccc([N+](=O)[O-])cc1 (X10-[X2]KLLKKLL-NH2) here?
The MHC was 256 µg/mL.

With CC(C)C[C@@H](CN(CC(N)=O)S(=O)(=O)c1ccccc1[N+](=O)[O-])NC(=O)[C@H](CCCCN)NC(=O)[C@H](CCCCN)NC(=O)[C@H](CC(C)C)NC(=O)[C@H](CC(C)C)NC(=O)[C@H](CCCCN)NC(=O)[C@H](CC(C)C)NC(=O)[C@@H](N)Cc1ccccc1 (H-FLKLLKK-X17) as the molecule, how does the MHC read?
Its MHC is 256 µg/mL.

CC(C)C[C@@H](CN(CC(N)=O)S(=O)(=O)c1ccc(F)cc1)NC(=O)[C@H](CCCCN)NC(=O)[C@H](CCCCN)NC(=O)[C@H](CC(C)C)NC(=O)[C@H](CC(C)C)NC(=O)[C@H](CCCCN)NC(=O)[C@H](CC(C)C)NC(=O)[C@@H](N)Cc1ccccc1 (H-FLKLLKK-X22) was tested. Which MHC did it give?
Its MHC is 256 µg/mL.

With COc1ccc(S(=O)(=O)N(CC(=O)N[C@@H](CCCCN)C(=O)N[C@@H](CC(C)C)C(=O)N[C@@H](CC(C)C)C(=O)N[C@@H](CCCCN)C(=O)N[C@@H](CCCCN)C(=O)N[C@@H](CC(C)C)C(=O)N[C@@H](CC(C)C)C(N)=O)C[C@@H](N)CC(C)C)cc1 ({Benzenesulfonyl(4-OMe)}-[X2]KLLKKLL-NH2) as the molecule, how does the MHC read?
Its MHC is 256 µg/mL.
